Measured values as given in patent publication US8834921B2, “Sustained-release liposomal anesthetic compositions” (Pacira Pharmaceuticals, Inc., priority 1997, dated 2014).
Where a name gives a salt, the structure may show the parent alone.

Key:
mice = test: Determination of maximum tolerated dose (MTD), subcutaneous test; assay type: in vivo; details: highest dose at which none of the animals experienced systemic toxicity
Excerpt: (§1) Male guinea pigs weighing 800-1000 grams (Harlan-Sprague-Dawley, San Diego, Calif.) were used for efficacy studies. Male guinea pigs (Harlan-Sprague-Dawley) weighing 400-600 grams were used for pharmacokinetic studies. The animals were housed, 1 per cage, in a temperature-controlled environment with alternating 12-hour periods of light and darkness and given unrestricted access to food and water. Prior to each study, animals were habituated to the environment for at least 7 days. Female CDI mice (Sprague-Dawley) weighing 22-28 grams were used for determination of maximum tolerated dose (MTD). All animals were maintained in accordance with guidelines of the Committee on Care and Use of Laboratory Animals of the Institute of Laboratory Animal Resources, National Research Council.
Determination of maximum tolerated dose (MTD) was done in mice using a subcutaneous test known in the art (R. H. de long et al., Anesthesiology 54:177-81, 1981). Groups of three mice each were given injections of either 780 or 980 mg per kg body weight of the above-described MVL formulation containing bupivacaine sulfate as two divided doses of 500 μl each (total 1.0 mL volume). The doses were administered in rapid sequence into each flank. Control groups of 3 mice each received one of the test doses as a single dose of 10, 20, 30 or 50 mg/kg body weight of unencapsulated bupivacaine hydrochloride. […]

in vivo = test: in vivo; design: species or system guinea pigs; details: guinea pig; for half-life: t1/2 (hr)
Excerpt: as §1
The in vivo pharmacokinetics of the MVL formulations of bupivacaine and free bupivacaine hydrochloride were compared following a single 1 mL intracutaneous dose of the MVL formulation containing 1.0 percent (w/v) of bupivacaine, or a dose of 0.5 percent (w/v) of unencapsulated bupivacaine hydrochloride to a group of guinea pigs. […] For the animals that received free bupivacaine hydrochloride, samples were collected at 0 and 30 minutes, and 1, 3, 6 and 9 hours following injection, while the animals that received the MVL formulations of bupivacaine were sampled 0, 6, 12, 18, 24, 48, and 72 hours following injection. At each time point, 3 or more animals were first anesthetized with halothane and then exanguinated by cardiac puncture. Serum samples were obtained by centrifugation of clotted whole blood. Skin was collected around the injection site with 3 cm margins, together with a 2-3 mm layer of underlying subcutaneous tissue. The skin and serum samples were kept frozen at −20° C. until analysis.
The amount of total bupivacaine remaining in the injection site was obtained by mincing the tissue followed by in toto homogenization in water using a Polytron homogenizer (Brinkman, Littau, Switzerland). Bupivacaine was extracted from the homogenate and analyzed by HPLC using a previously published method (Le Guevello et al., J. Chromatography 622:284-290, 1993). Bupivacaine concentration in serum was determined by extraction followed by HPLC (Le Guevello et al., supra). Tetracaine spiked into each sample before extraction was used as an internal standard. The limit of detection of the assay was 20 ng/mL.
Pharmacokinetic data obtained from the samples were analyzed using a noncompartmental model (WinNonlin software, Scientific Consulting, Inc., Apex, N.C.). Parameters calculated were the drug amount remaining at the injection site, the area under the “amount vs. time” curve (AUC), and drug half-life (t1/2,). In addition to the AUC and half-life, peak concentration (Cmax) was also reported for serum bupivacaine pharmacokinetics.
One way analysis of variance (ANOVA) was used to separately determine dose dependency for the different drug formulations and route of administration (via MVL or free drug) as well as for comparison between formulations. Student-Newman-Keuls tests were used on all ANOVA analyses.

With `CCCCN1CCCCC1C(=O)Nc1c(C)cccc1C` (centres unmarked) [Bupivacaine hydrochloride] the “maximum tolerated dose (MTD)” value (mice) was “about 20 mg/kg of body weight”, the “AUC (mg * hr), Skin” value (in vivo) was 2.9 mg·h and the “tolerability of the intracutaneous dose” value (in vivo) was “unable to tolerate”. For the same molecule, the AUC (in vivo; male) was 21200 ng·h/mL, the Cmax (in vivo; male) was 6500 ng/mL and the “Peak Amount (mg), Skin” value (in vivo; male) was 3.8 mg. It also gave a half-life (in vivo; male, Serum) of 2.1 h and a half-life (in vivo; male, Skin) of 1.3 h.
